Data taken from ChEMBL document CHEMBL5038640, “Natural Berberine-derived Azolyl Ethanols as New Structural Antibacterial Agents against Drug-Resistant Escherichia coli” (J Med Chem, 2022).
Values after ≈ are worked out from the molar mass of the structure shown. Active and inactive are the calls of the source. The calls are words filed in the database; no cut-off is given here.

Tests used:
Staphylococcus aureus [1] = experiment: Antibacterial activity against Staphylococcus aureus assessed as decrease in bacterial growth incubated for 18 hrs by broth microdilution method; type: functional
[2] = Aqueous solubility of the compound in saline; type: physicochemical
Escherichia coli [3] = experiment: Antibacterial activity against Escherichia coli ATCC 25922 assessed as decrease in bacterial growth incubated for 18 hrs by broth microdilution method; type: functional
Staphylococcus aureus [4] = experiment: Antibacterial activity against Staphylococcus aureus ATCC 25923 assessed as decrease in bacterial growth incubated for 18 hrs by broth microdilution method; type: functional
Enterococcus faecalis = experiment: Antibacterial activity against Enterococcus faecalis assessed as decrease in bacterial growth incubated for 18 hrs by broth microdilution method; type: functional
Acinetobacter baumannii = experiment: Antibacterial activity against Acinetobacter baumannii assessed as decrease in bacterial growth incubated for 18 hrs by broth microdilution method; type: functional
Pseudomonas aeruginosa [5] = experiment: Antibacterial activity against Pseudomonas aeruginosa ATCC 27853 assessed as decrease in bacterial growth incubated for 18 hrs by broth microdilution method; type: functional
Klebsiella pneumoniae = experiment: Antibacterial activity against Klebsiella pneumoniae assessed as decrease in bacterial growth incubated for 18 hrs by broth microdilution method; type: functional
Escherichia coli [6] = experiment: Antibacterial activity against Escherichia coli assessed as decrease in bacterial growth incubated for 18 hrs by broth microdilution method; type: functional
Pseudomonas aeruginosa [7] = experiment: Antibacterial activity against Pseudomonas aeruginosa assessed as decrease in bacterial growth incubated for 18 hrs by broth microdilution method; type: functional
Staphylococcus aureus [8] = experiment: Antibacterial activity against methicillin-resistant Staphylococcus aureus N315 assessed as decrease in bacterial growth incubated for 18 hrs by broth microdilution method; type: functional
Staphylococcus aureus [9] = experiment: Antibacterial activity against Staphylococcus aureus ATCC 29213 assessed as decrease in bacterial growth incubated for 18 hrs by broth microdilution method; type: functional
Escherichia coli [10] = experiment: Antibacterial activity against Escherichia coli assessed as reduction in metabolic activity in presence of resazurin measured after 6 hrs by alamar blue assay; type: functional, organism-based
Escherichia coli [11] = experiment: Anti-bioflim activity against Escherichia coli assessed as inhibition of bioflim formation at MIC incubated for 24 hrs followed by compound washout by crystal violet staining based assay; type: functional
Escherichia coli [12] = experiment: Bactericidal activity against Escherichia coli assessed as reduction in colony formation at 8 times MIC measured after upto 6 hrs by time kill assay; type: functional, organism-based; conditions: time hrs <=6
Escherichia coli [13] = experiment: Induction of bacterial resistance in Escherichia coli assessed as change in MIC measured after 16 days by resistance development assay; type: functional; conditions: time 16.0 day
Cell membrane [14] = experiment: Induction of membrane disruption in Escherichia coli at 2 times of MIC incubated for 6 hrs by DAPI staining and propidium iodide staining based fluorescence assay; type: subcellular
Cell membrane [15] = experiment: Induction of membrane depolarization in Escherichia coli at 0.007 to 0.112 mM incubated for 6 hrs by DiSC35 dye-based fluorescence assay; type: subcellular; conditions: dose 0.007-0.112 mM
DNA = experiment: Competitive binding affinity to Escherichia coli DNA assessed as DNA intercalation by AO staining based assay; type: nucleic-acid assay
Cell membrane [16] = experiment: Induction of cell membrane disruption in Escherichia coli assessed as increase in protein leakage upto 0.192 mM by Bradford assay; type: subcellular; conditions: dose mM <=0.192
Escherichia coli [17] = experiment: Induction of bacterial resistance in Escherichia coli assessed as fold increase in MIC measured after 16 days by resistance development assay; type: functional; conditions: time 16.0 day
Cell membrane [18] = experiment: Induction of cell membrane disruption in Escherichia coli assessed as increase in protein leakage upto 0.224 mM by Bradford assay; type: subcellular; conditions: dose mM <=0.224
Escherichia coli [19] = experiment: Biofilm disruption activity in Escherichia coli assessed as mass loss of biofilm upto 0.112 mM incubated for 24 hrs by crystal violet staining based assay; type: functional, organism-based; conditions: dose mM <=0.112, time 24.0 hrs
Cell membrane [20] = experiment: Induction of Inner membrane permeabilization in Escherichia coli assessed as increase in fluorescence intensity at MIC incubated for 6 hrs by PI staining based assay; type: subcellular
Escherichia coli [21] = experiment: Induction of intracellular ROS production in Escherichia coli assessed as increase in ROS accumulation at 0.007 to 0.224 mM incubated for 6 hrs by DCFH-DA assay; type: functional, organism-based; conditions: dose 0.007-0.224 mM
[22] = Cytotoxicity against human FHC cells assessed as cell viability upto 0.100 mM incubated for 24 hrs by MTT assay; type: toxicity, cell-based; conditions: read-out: Activity
Calf thymus DNA = experiment: Binding affinity to calf thymus DNA assessed as red shift in absorption spectra at pH 7.4 by UV-vis absorption spectroscopy; type: nucleic-acid assay; conditions: Bos taurus
Cell membrane [23] = experiment: Induction of outer membrane permeabilization in Escherichia coli assessed as increase in fluorescence intensity at MIC incubated for 6 hrs by NPN-dye based fluorescence assay; type: subcellular
[24] = Cytotoxicity against human PNT1A cells assessed as cell viability upto 0.100 mM incubated for 24 hrs by MTT assay; type: toxicity, cell-based; conditions: read-out: Activity
[25] = Hemolytic activity against human RBC assessed as 50% hemolysis measured upto 64 times of MIC after 1 to 8 hr; type: toxicity, cell-based; conditions: erythrocyte, time 1-8 hrs
Escherichia coli [26] = experiment: Biofilm disruption activity in Escherichia coli at MIC incubated for 24 hrs by crystal violet staining based assay; type: functional; conditions: dose 0.007 mM
Escherichia coli [27] = experiment: Biofilm disruption activity in Escherichia coli assessed as reduction in exo-polysaccharide incubated for 24 hrs by crystal violet staining based assay; type: functional, organism-based
A549 = experiment: Cytotoxicity against human A549 cells assessed as cell viability upto 0.100 mM incubated for 24 hrs by MTT assay; type: functional, cell-based; conditions: dose mM <=0.100, time 24.0 hrs
Escherichia coli [28] = experiment: Biofilm disruption activity in Escherichia coli assessed as mass loss of biofilm upto 0.096 mM incubated for 24 hrs by crystal violet staining based assay; type: functional, organism-based; conditions: dose mM <=0.096, time 24.0 hrs
Cell membrane [29] = experiment: Induction of membrane depolarization in Escherichia coli at 0.006 to 0.096 mM incubated for 6 hrs by DiSC35 dye-based fluorescence assay; type: subcellular; conditions: dose 0.006-0.096 mM
Escherichia coli [30] = experiment: Induction of intracellular ROS production in Escherichia coli assessed as increase in ROS accumulation at 0.006 to 0.192 mM incubated for 6 hrs by DCFH-DA assay; type: functional, organism-based; conditions: dose 0.006-0.192 mM

Structure (SMILES): COc1ccc2cc3[n+](cc2c1OCC(O)CN1CCCCC1)CCc1cc2c(cc1-3)OCO2.[Br-] (stereo not drawn)
- MIC (Staphylococcus aureus [1]): 118 µM
- solubility [2]: 2000 µM
- MIC (Escherichia coli [3]): 236 µM
- MIC (Staphylococcus aureus [4]): 236 µM
- MIC (Enterococcus faecalis): 118 µM
- MIC (Acinetobacter baumannii): 118 µM
- MIC (Pseudomonas aeruginosa [5]): 236 µM
- MIC (Klebsiella pneumoniae): 236 µM
- MIC (Escherichia coli [6]): 118 µM
- MIC (Pseudomonas aeruginosa [7]): 118 µM
- MIC (Staphylococcus aureus [8]): 59 µM
- MIC (Staphylococcus aureus [9]): 236 µM

Structure (SMILES): COc1ccc2cc3[n+](cc2c1OCC(O)Cn1c([N+](=O)[O-])cnc1C)CCc1cc2c(cc1-3)OCO2.[Br-] (stereo not drawn)
- Activity (Escherichia coli [10]): Active
- inhibition (INH) (Escherichia coli [11]): 28.25%
- MIC (Staphylococcus aureus [1]): 109 µM
- Activity (Escherichia coli [12]): Active
- Activity (Escherichia coli [13]): inactive
- solubility [2]: 908 µM
- MIC (Escherichia coli [3]): 55 µM
- MIC (Staphylococcus aureus [4]): 55 µM
- Activity (Cell membrane [14]): Active
- MIC (Enterococcus faecalis): 14 µM
- Activity (Cell membrane [15]): Active
- MIC (Acinetobacter baumannii): 14 µM
- Activity (DNA): Active
- Activity (Cell membrane [16]): Active
- MIC (Pseudomonas aeruginosa [5]): 55 µM
- Activity (Escherichia coli [17]): inactive
- Activity (Cell membrane [18]): Active
- Activity (Escherichia coli [19]): Dose-Dependent Effect
- Activity (Cell membrane [20]): Active
- Activity (Escherichia coli [21]): Active
- MIC (Klebsiella pneumoniae): 27 µM
- viability at 24 h [22]: 70%
- Activity (Calf thymus DNA): Active
- MIC (Escherichia coli [6]): 7 µM
- MIC (Pseudomonas aeruginosa [7]): 55 µM
- Activity (Cell membrane [23]): Active
- viability at 24 h [24]: 70%
- Activity [25]: Non-Toxic
- Activity (Escherichia coli [26]): 40%
- MIC (Staphylococcus aureus [8]): 14 µM
- MIC (Staphylococcus aureus [9]): 55 µM
- Activity (Escherichia coli [27]): Active
- Activity (A549): inactive

Structure (SMILES): CCn1cc(C(=O)O)c(=O)c2cc(F)c(N3CCNCC3)cc21 [NORFLOXACIN]
- MIC (Staphylococcus aureus [1]): 2 µM (≈ 0.639 µg/mL)
- MIC (Escherichia coli [3]): 13 µM (≈ 4.15 µg/mL)
- MIC (Staphylococcus aureus [4]): 13 µM (≈ 4.15 µg/mL)
- MIC (Enterococcus faecalis): 6 µM (≈ 1.92 µg/mL)
- MIC (Acinetobacter baumannii): 6 µM (≈ 1.92 µg/mL)
- MIC (Pseudomonas aeruginosa [5]): 200 µM (≈ 63.9 µg/mL)
- fold change (FC) (Escherichia coli [17]): 64
- MIC (Klebsiella pneumoniae): 6 µM (≈ 1.92 µg/mL)
- MIC (Escherichia coli [6]): 13 µM (≈ 4.15 µg/mL)
- MIC (Pseudomonas aeruginosa [7]): 25 µM (≈ 7.98 µg/mL)
- MIC (Staphylococcus aureus [8]): 25 µM (≈ 7.98 µg/mL)
- MIC (Staphylococcus aureus [9]): 100 µM (≈ 31.9 µg/mL)

Structure (SMILES): COc1ccc2cc3[n+](cc2c1OCC(O)CN(CCO)CCO)CCc1cc2c(cc1-3)OCO2.[Br-] (stereo not drawn)
- MIC (Staphylococcus aureus [1]): 14 µM
- solubility [2]: 4240 µM
- MIC (Escherichia coli [3]): 114 µM
- MIC (Staphylococcus aureus [4]): 227 µM
- MIC (Enterococcus faecalis): 114 µM
- MIC (Acinetobacter baumannii): 114 µM
- MIC (Pseudomonas aeruginosa [5]): 114 µM
- MIC (Klebsiella pneumoniae): 227 µM
- MIC (Escherichia coli [6]): 114 µM
- MIC (Pseudomonas aeruginosa [7]): 114 µM
- MIC (Staphylococcus aureus [8]): 57 µM
- MIC (Staphylococcus aureus [9]): 28 µM

Structure (SMILES): COc1ccc2cc3[n+](cc2c1OCC(O)CSc1nc2ccccc2s1)CCc1cc2c(cc1-3)OCO2.[Br-] (stereo not drawn)
- Activity (Escherichia coli [10]): Active
- inhibition (INH) (Escherichia coli [11]): 21.87%
- MIC (Staphylococcus aureus [1]): 51 µM
- Activity (Escherichia coli [28]): Dose-Dependent Effect
- Activity (Escherichia coli [12]): Active
- Activity (Escherichia coli [13]): inactive
- Activity (Cell membrane [29]): Active
- solubility [2]: 770 µM
- MIC (Escherichia coli [3]): 51 µM
- MIC (Staphylococcus aureus [4]): 13 µM
- Activity (Cell membrane [14]): Active
- MIC (Enterococcus faecalis): 51 µM
- MIC (Acinetobacter baumannii): 26 µM
- Activity (DNA): Active
- Activity (Cell membrane [16]): Active
- MIC (Pseudomonas aeruginosa [5]): 51 µM
- Activity (Escherichia coli [17]): inactive
- Activity (Cell membrane [18]): Active
- Activity (Cell membrane [20]): Active
- MIC (Klebsiella pneumoniae): 13 µM
- viability at 24 h [22]: 70%
- Activity (Calf thymus DNA): Active
- MIC (Escherichia coli [6]): 6 µM
- MIC (Pseudomonas aeruginosa [7]): 102 µM
- Activity (Cell membrane [23]): Active
- viability at 24 h [24]: 70%
- Activity [25]: Non-Toxic
- Activity (Escherichia coli [30]): Active
- Activity (Escherichia coli [26]): 15%
- MIC (Staphylococcus aureus [8]): 6 µM
- MIC (Staphylococcus aureus [9]): 51 µM
- Activity (Escherichia coli [27]): Active
- Activity (A549): inactive

Structure (SMILES): COc1ccc2cc3[n+](cc2c1OCC(O)CN1CCOCC1)CCc1cc2c(cc1-3)OCO2.[Br-] (stereo not drawn)
- MIC (Staphylococcus aureus [1]): 469 µM
- solubility [2]: 2190 µM
- MIC (Escherichia coli [3]): 235 µM
- MIC (Staphylococcus aureus [4]): 469 µM
- MIC (Enterococcus faecalis): 469 µM
- MIC (Acinetobacter baumannii): 469 µM
- MIC (Pseudomonas aeruginosa [5]): 469 µM
- MIC (Klebsiella pneumoniae): 469 µM
- MIC (Escherichia coli [6]): 235 µM
- MIC (Pseudomonas aeruginosa [7]): 469 µM
- MIC (Staphylococcus aureus [8]): 469 µM
- MIC (Staphylococcus aureus [9]): 235 µM

Structure (SMILES): COc1ccc2cc3[n+](cc2c1OCC(O)CSc1nnnn1C)CCc1cc2c(cc1-3)OCO2.[Br-] (stereo not drawn)
- MIC (Staphylococcus aureus [1]): 111 µM
- solubility [2]: 992 µM
- MIC (Escherichia coli [3]): 111 µM
- MIC (Staphylococcus aureus [4]): 56 µM
- MIC (Enterococcus faecalis): 56 µM
- MIC (Acinetobacter baumannii): 56 µM
- MIC (Pseudomonas aeruginosa [5]): 111 µM
- MIC (Klebsiella pneumoniae): 111 µM
- MIC (Escherichia coli [6]): 28 µM
- MIC (Pseudomonas aeruginosa [7]): 111 µM
- MIC (Staphylococcus aureus [8]): 56 µM
- MIC (Staphylococcus aureus [9]): 111 µM

Structure (SMILES): COc1ccc2cc3[n+](cc2c1OCC(O)Cn1cnc2cc(Br)ccc21)CCc1cc2c(cc1-3)OCO2.[Br-] (stereo not drawn)
- MIC (Staphylococcus aureus [1]): 98 µM
- solubility [2]: 774 µM
- MIC (Escherichia coli [3]): 98 µM
- MIC (Staphylococcus aureus [4]): 98 µM
- MIC (Enterococcus faecalis): 98 µM
- MIC (Acinetobacter baumannii): 98 µM
- MIC (Pseudomonas aeruginosa [5]): 98 µM
- MIC (Klebsiella pneumoniae): 24 µM
- MIC (Escherichia coli [6]): 49 µM
- MIC (Pseudomonas aeruginosa [7]): 98 µM
- MIC (Staphylococcus aureus [8]): 24 µM
- MIC (Staphylococcus aureus [9]): 98 µM
